In US8877814B2, “Titration package for neramexane and its use in the treatment of an inner ear disorder” (Merz Pharma GmbH & Co. KGaA, priority 2007, dated 2014):

Key:
[1] = system: patients afflicted with various degrees of hearing loss; experiment: Double blind placebo controlled pilot trial of neramexane for treatment of hearing loss; type: in vivo, human; conditions: neramexane mesylate up to 75 mg/d, compared to the placebo group
Procedure: A hearing threshold level may be defined as the average of the pure tone hearing threshold levels at testing frequencies of 0.25, 0.5, 1, 2 and 4 kHz.
The primary objective of this study is to investigate the safety and efficacy of neramexane mesylate at daily doses of up to 75 mg in the treatment of hearing loss in comparison to placebo.
Neramexane mesylate (or placebo) is uptitrated to a maximum daily dose of 75 mg, starting with a daily dose of 25 mg for one week, and increasing dosage in 25 mg steps at weekly intervals.
Treatment is started in the evening of study day 1. The daily starting dose is 25 mg neramexane mesylate per dose to be taken for 7 days at bedtime. […]
Primary Outcome • Change from baseline in hearing threshold level of left/right ear (dB) calculated as average of the pure tone hearing level threshold levels at 0.25, 0.5, 1, 2 and 4 kHz.
Secondary Outcomes • Change from baseline in high frequency hearing threshold of left/right ear (dB) calculated as average of the pure tone hearing threshold levels at 4, 6, 8 and 10 kHz • Change from baseline in individual frequencies (hearing thresholds) on a pure tone audiogram (air conduction) • Number of Responder • Patient-reported outcome on a 11-point Likert-Scale (0=hearing is not a problem, 10=hearing is a problem as much as possible) • Change in hearing impairment based on the hearing threshold level: […]

5-HT3 receptors = conditions: cited from earlier work
α 9/α 10 nicotinic = α 9/α 10 nicotinic (Rattus norvegicus, UniProt P43144+Q9JLB5); conditions: Plazas et al., Eur J. Pharmacol. 2007; cited from earlier work
[2] = system: subjects with subjective tinnitus of at least moderate severity; experiment: Double blind placebo controlled pilot trial of neramexane for tinnitus: treatment emergent adverse events leading to drop-out
Procedure: The primary objective of this study was to compare the efficacy, tolerability and safety of neramexane mesylate at three different dosages (25, 50 or 75 mg/d) with placebo in subjects with subjective tinnitus of at least moderate severity.
In a double-blind, multicenter, randomized, placebo-controlled, parallel-group study, the efficacy of neramexane in subjects suffering from tinnitus of at least moderate severity was assessed. Approximately 100 patients, who fulfilled particular inclusion criteria and met none of particular exclusion criteria, were randomized to each of four double-blind treatment groups (neramexane mesylate 25, 50, 75 mg/d or placebo), resulting in approximately 400 patients in total.
The double-blind, 16-week treatment period consisted of a 4-week uptitration period and a 12-week fixed-dose treatment period at unchanged maintenance b.i.d. dosing. In case of poor tolerability, however, the investigator could consider a dose reduction by 25 mg/d (or placebo, respectively). […] In total, this study involved seven study visits: screening, baseline, and at the end of weeks 4, 8, 12, 16, and 20. (Participants received either neramexane mesylate (e.g. 50 mg, as 25 mg immediate release tablets given twice daily) or placebo twice daily for 16 weeks. Neramexane mesylate was uptitrated in weekly steps of 12.5 or 25 mg during a 4-week uptitration period preceding the fixed-dose 12-week treatment period. Treatment was followed by a four week follow-up period.)
Neramexane mesylate immediate release tablets (12.5 mg and 25 mg) and matching placebo tablets were administered as film coated tablets.
Study medication was dispensed at Visit 2 (baseline, day 0). Each patient received one blister box containing 5 blister cards (including one reserve blister) of double-blind study medication (i.e., 32 tablets). Subjects were instructed to take 2 tablets twice daily (4 tablets/d), beginning the day after dispensing of the study medication, until they returned for their next study visit (Visit 3). For those subjects assigned to receive active medication, some placebo tablets were incorporated into the dosing regimen to ensure blinding during the uptitration period. The target fixed-maintenance dose of 25, 50, or 75 mg/d was administered starting with the fifth week of double-blind treatment and was continued throughout the study. At each of the subsequent visits (Visits 3, 4, and 5, corresponding to end of week 4, 8 and 12) patients received another blister box containing 5 blister cards for the 4 week intervals, with double-blind medication for the intervening treatment period until the next study visit.
In case of poor tolerability the investigator could consider a dose reduction of 25 mg/d by omitting the bigger tablet in the morning which constituted an effective dose reduction only in the 75 mg/d and 50 mg/d neramexane mesylate groups. After omitting the bigger tablet (25 mg or placebo, respectively) of the morning dose, these patients could then continue the course of the study as scheduled, while receiving only one smaller tablet as the morning dose (12.5 mg or placebo, respectively) and 2 tablets of different sizes (12.5 mg, 25 mg or placebo, respectively) as the evening dose. The dose was to be kept stable until the end of the study.

Sequence of α 9/α 10 nicotinic (P43144 26-479): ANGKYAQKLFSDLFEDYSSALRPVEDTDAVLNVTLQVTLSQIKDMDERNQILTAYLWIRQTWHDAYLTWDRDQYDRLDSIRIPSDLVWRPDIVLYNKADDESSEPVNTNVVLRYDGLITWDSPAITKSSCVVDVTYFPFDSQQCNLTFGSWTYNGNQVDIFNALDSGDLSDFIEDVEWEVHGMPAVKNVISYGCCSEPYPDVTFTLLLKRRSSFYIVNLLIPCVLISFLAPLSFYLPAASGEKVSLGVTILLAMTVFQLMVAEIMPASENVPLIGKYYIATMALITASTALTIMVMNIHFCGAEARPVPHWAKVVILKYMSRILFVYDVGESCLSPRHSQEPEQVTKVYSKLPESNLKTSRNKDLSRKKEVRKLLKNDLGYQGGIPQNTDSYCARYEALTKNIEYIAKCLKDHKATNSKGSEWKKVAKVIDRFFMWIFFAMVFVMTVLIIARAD
Sequence of α 9/α 10 nicotinic (Q9JLB5 25-447): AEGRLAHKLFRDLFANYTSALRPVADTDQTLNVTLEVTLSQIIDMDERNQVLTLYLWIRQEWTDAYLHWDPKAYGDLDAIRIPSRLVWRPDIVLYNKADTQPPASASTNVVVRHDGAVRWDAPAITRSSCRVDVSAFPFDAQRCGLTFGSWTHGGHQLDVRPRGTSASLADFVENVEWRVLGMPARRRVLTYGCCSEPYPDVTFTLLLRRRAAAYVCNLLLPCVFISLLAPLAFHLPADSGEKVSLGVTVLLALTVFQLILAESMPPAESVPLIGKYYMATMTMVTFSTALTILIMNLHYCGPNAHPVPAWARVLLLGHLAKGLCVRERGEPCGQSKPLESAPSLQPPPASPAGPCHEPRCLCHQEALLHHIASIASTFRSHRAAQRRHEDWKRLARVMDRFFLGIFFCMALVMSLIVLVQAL

CC1(C)CC(C)(C)CC(C)(N)C1 [Neramexane, 1-amino-1,3,3,5,5-pentamethylcyclohexane]
3: Vertigo leading to drop-out, n (number of patients) ([2]; 75 mg/d, N = 102, EFS)
1: Depression leading to drop-out, n (number of patients) ([2]; 25 mg/d, N = 108, EFS) | Headache leading to drop-out, n (number of patients) ([2]; 50 mg/d, N = 107, EFS) | Tinnitus leading to drop-out, n (number of patients) ([2]; 75 mg/d, N = 102, EFS)
23: Any adverse event leading to drop-out, n (number of patients) ([2]; 50 mg/d, N = 107, EFS)
(3.7) %: Vertigo leading to drop-out, % of patients ([2]; 50 mg/d, N = 107, EFS)
(1.0) %: Tinnitus leading to drop-out, % of patients ([2]; 75 mg/d, N = 102, EFS)
(21.5) %: Any adverse event leading to drop-out, % of patients ([2]; 50 mg/d, N = 107, EFS)
6: Dizziness leading to drop-out, n (number of patients) ([2]; 50 mg/d, N = 107, EFS)
(0.0) %: Cardiovascular disorder leading to drop-out, % of patients ([2]; 25 mg/d, N = 108, EFS) | Fatigue leading to drop-out, % of patients ([2]; 25 mg/d, N = 108, EFS) | Headache leading to drop-out, % of patients ([2]; 25 mg/d, N = 108, EFS) | Hyperhidrosis leading to drop-out, % of patients ([2]; 25 mg/d, N = 108, EFS) | Nausea leading to drop-out, % of patients ([2]; 25 mg/d, N = 108, EFS) | Paresthesia leading to drop-out, % of patients ([2]; 25 mg/d, N = 108, EFS) | Vertigo leading to drop-out, % of patients ([2]; 25 mg/d, N = 108, EFS) | Visual acuity reduced leading to drop-out, % of patients ([2]; 25 mg/d, N = 108, EFS) | Hyperhidrosis leading to drop-out, % of patients ([2]; 50 mg/d, N = 107, EFS) | Tinnitus leading to drop-out, % of patients ([2]; 50 mg/d, N = 107, EFS) | Visual acuity reduced leading to drop-out, % of patients ([2]; 50 mg/d, N = 107, EFS) | Cardiovascular disorder leading to drop-out, % of patients ([2]; 75 mg/d, N = 102, EFS) | Depression leading to drop-out, % of patients ([2]; 75 mg/d, N = 102, EFS) | Paresthesia leading to drop-out, % of patients ([2]; 75 mg/d, N = 102, EFS)
(1.9) %: Dizziness leading to drop-out, % of patients ([2]; 25 mg/d, N = 108, EFS) | Tinnitus leading to drop-out, % of patients ([2]; 25 mg/d, N = 108, EFS) | Cardiovascular disorder leading to drop-out, % of patients ([2]; 50 mg/d, N = 107, EFS) | Depression leading to drop-out, % of patients ([2]; 50 mg/d, N = 107, EFS) | Fatigue leading to drop-out, % of patients ([2]; 50 mg/d, N = 107, EFS) | Nausea leading to drop-out, % of patients ([2]; 50 mg/d, N = 107, EFS) | Paresthesia leading to drop-out, % of patients ([2]; 50 mg/d, N = 107, EFS)
(28.4) %: Any adverse event leading to drop-out, % of patients ([2]; 75 mg/d, N = 102, EFS)
29: Any adverse event leading to drop-out, n (number of patients) ([2]; 75 mg/d, N = 102, EFS)
exhibit activity: activity at 5-HT3 receptors (5-HT3 receptors) | activity at the α 9/α 10 nicotinic receptors (α 9/α 10 nicotinic)
0: Cardiovascular disorder leading to drop-out, n (number of patients) ([2]; 25 mg/d, N = 108, EFS) | Fatigue leading to drop-out, n (number of patients) ([2]; 25 mg/d, N = 108, EFS) | Headache leading to drop-out, n (number of patients) ([2]; 25 mg/d, N = 108, EFS) | Hyperhidrosis leading to drop-out, n (number of patients) ([2]; 25 mg/d, N = 108, EFS) | Nausea leading to drop-out, n (number of patients) ([2]; 25 mg/d, N = 108, EFS) | Paresthesia leading to drop-out, n (number of patients) ([2]; 25 mg/d, N = 108, EFS) | Vertigo leading to drop-out, n (number of patients) ([2]; 25 mg/d, N = 108, EFS) | Visual acuity reduced leading to drop-out, n (number of patients) ([2]; 25 mg/d, N = 108, EFS) | Hyperhidrosis leading to drop-out, n (number of patients) ([2]; 50 mg/d, N = 107, EFS) | Tinnitus leading to drop-out, n (number of patients) ([2]; 50 mg/d, N = 107, EFS) | Visual acuity reduced leading to drop-out, n (number of patients) ([2]; 50 mg/d, N = 107, EFS) | Cardiovascular disorder leading to drop-out, n (number of patients) ([2]; 75 mg/d, N = 102, EFS) | Depression leading to drop-out, n (number of patients) ([2]; 75 mg/d, N = 102, EFS) | Paresthesia leading to drop-out, n (number of patients) ([2]; 75 mg/d, N = 102, EFS)
15: Dizziness leading to drop-out, n (number of patients) ([2]; 75 mg/d, N = 102, EFS)
(2.9) %: Vertigo leading to drop-out, % of patients ([2]; 75 mg/d, N = 102, EFS)
9: Any adverse event leading to drop-out, n (number of patients) ([2]; 25 mg/d, N = 108, EFS)
(14.7) %: Dizziness leading to drop-out, % of patients ([2]; 75 mg/d, N = 102, EFS)
improvement: Primary outcome: change from baseline in hearing threshold level [1] | Secondary outcomes (e.g. change from baseline in different frequencies on a pure tone audiogram) [1]
4: Vertigo leading to drop-out, n (number of patients) ([2]; 50 mg/d, N = 107, EFS)
(8.3) %: Any adverse event leading to drop-out, % of patients ([2]; 25 mg/d, N = 108, EFS)
2: Dizziness leading to drop-out, n (number of patients) ([2]; 25 mg/d, N = 108, EFS) | Tinnitus leading to drop-out, n (number of patients) ([2]; 25 mg/d, N = 108, EFS) | Cardiovascular disorder leading to drop-out, n (number of patients) ([2]; 50 mg/d, N = 107, EFS) | Depression leading to drop-out, n (number of patients) ([2]; 50 mg/d, N = 107, EFS) | Fatigue leading to drop-out, n (number of patients) ([2]; 50 mg/d, N = 107, EFS) | Nausea leading to drop-out, n (number of patients) ([2]; 50 mg/d, N = 107, EFS) | Paresthesia leading to drop-out, n (number of patients) ([2]; 50 mg/d, N = 107, EFS) | Fatigue leading to drop-out, n (number of patients) ([2]; 75 mg/d, N = 102, EFS) | Headache leading to drop-out, n (number of patients) ([2]; 75 mg/d, N = 102, EFS) | Hyperhidrosis leading to drop-out, n (number of patients) ([2]; 75 mg/d, N = 102, EFS) | Nausea leading to drop-out, n (number of patients) ([2]; 75 mg/d, N = 102, EFS) | Visual acuity reduced leading to drop-out, n (number of patients) ([2]; 75 mg/d, N = 102, EFS)
(2.0) %: Fatigue leading to drop-out, % of patients ([2]; 75 mg/d, N = 102, EFS) | Headache leading to drop-out, % of patients ([2]; 75 mg/d, N = 102, EFS) | Hyperhidrosis leading to drop-out, % of patients ([2]; 75 mg/d, N = 102, EFS) | Nausea leading to drop-out, % of patients ([2]; 75 mg/d, N = 102, EFS) | Visual acuity reduced leading to drop-out, % of patients ([2]; 75 mg/d, N = 102, EFS)
(0.9) %: Depression leading to drop-out, % of patients ([2]; 25 mg/d, N = 108, EFS) | Headache leading to drop-out, % of patients ([2]; 50 mg/d, N = 107, EFS)
(5.6) %: Dizziness leading to drop-out, % of patients ([2]; 50 mg/d, N = 107, EFS)
